Measurements reported in US20220081412A1, “QUINOLINYL-PYRAZINE-CARBOXAMIDE COMPOUNDS AND USES THEREOF” (The Regents of the University of Michigan, priority 2018, published 2022).

Tested on: MIA PaCa-2 cells
Experiment: Bru-seq analysis for nascent RNA synthesis (log2FC of genes, GSEA gene sets)
Format: cell-based, human
Conditions: downregulated gene sets, 4 h, MIA PaCa-2 cells

SMILES: CCN(CC)CCCC(C)Nc1cnc(C(=O)Nc2cc(C)cc3cccnc23)cn1 (stereo not drawn) [J4, 5-((5-(diethylamino)pentan-2-yl)amino)-N-(6-methylquinolin-8-yl)pyrazine-2-carboxamide]
- NES TURASHVILI_BREAST_LOBULAR_CARCINOMA_VS_DUCTAL_NORMAL_DN (C2): −1.603
- NES ZHANG_TLX_TARGETS_36HR_DN (C2): −2.309
- NES ZHANG_TLX_TARGETS_DN (C2): −1.942
- NES ZHENG_FOXP3_TARGETS_IN_T_LYMPHOCYTE_DN (C2): −1.893
- ES GO_BASAL_PART_OF_CELL (GO): −0.526
- ES GO_CELL_SURFACE_RECEPTOR_SIGNALING_PATHWAY_INVOLVED_IN_CELL_CELL_SIGNALING (GO): −0.570
- ES GO_CILIUM_ORGANIZATION (GO): −0.331
- ES GO_CYTOKINE_RECEPTOR_ACTIVITY (GO): −0.488
- ES GO_DENDRITIC_SHAFT (GO): −0.568
- ES GO_DNA_DEPENDENT_ATPASE_ACTIVITY (GO): −0.369
- ES GO_DNA_DEPENDENT_DNA_REPLICATION_MAINTENANCE_OF_FIDELITY (GO): −0.569
- ES GO_DNA_DOUBLE_STRAND_BREAK_PROCESSING (GO): −0.551
- ES GO_DNA_HELICASE_ACTIVITY (GO): −0.389
- ES GO_DNA_REPAIR_COMPLEX (GO): −0.429
- ES GO_GLUTAMINE_METABOLIC_PROCESS (GO): −0.569
- ES GO_G_PROTEIN_COUPLED_RECEPTOR_ACTIVITY (GO): −0.476
- ES GO_HOMOPHILIC_CELL_ADHESION_VIA_PLASMA_MEMBRANE_ADHESION_MOLECULES (GO): −0.581
- ES GO_MITOTIC_RECOMBINATION (GO): −0.420
- ES GO_NEGATIVE_REGULATION_OF_EPITHELIAL_CELL_DIFFERENTIATION (GO): −0.597
- ES GO_PHOSPHOLIPID_TRANSPORTER_ACTIVITY (GO): −0.549
- ES GO_POTASSIUM_CHANNEL_COMPLEX (GO): −0.536
- ES GO_RECIPROCAL_DNA_RECOMBINATION (GO): −0.450
- ES GO_RECOMBINATIONAL_REPAIR (GO): −0.382
- ES GO_REGULATION_OF_ACUTE_INFLAMMATORY_RESPONSE (GO): −0.521
- ES GO_REGULATION_OF_MEMBRANE_LIPID_DISTRIBUTION (GO): −0.521
- ES GO_RESPONSE_TO_X_RAY (GO): −0.501
- ES GO_SOMATIC_RECOMBINATION_OF_IMMUNOGLOBULIN_GENE_SEGMENTS (GO): −0.498
- ES GO_SOMITE_DEVELOPMENT (GO): −0.451
- ES GO_STRAND_DISPLACEMENT (GO): −0.471
- NES GO_BASAL_PART_OF_CELL (GO): −1.629
- NES GO_CELL_SURFACE_RECEPTOR_SIGNALING_PATHWAY_INVOLVED_IN_CELL_CELL_SIGNALING (GO): −1.653
- NES GO_CILIUM_ORGANIZATION (GO): −1.502
- NES GO_CYTOKINE_RECEPTOR_ACTIVITY (GO): −1.467
- NES GO_DENDRITIC_SHAFT (GO): −1.746
- NES GO_DNA_DEPENDENT_ATPASE_ACTIVITY (GO): −1.545
- NES GO_DNA_DEPENDENT_DNA_REPLICATION_MAINTENANCE_OF_FIDELITY (GO): −1.697
- NES GO_DNA_DOUBLE_STRAND_BREAK_PROCESSING (GO): −1.613
- NES GO_DNA_HELICASE_ACTIVITY (GO): −1.504
- NES GO_DNA_REPAIR_COMPLEX (GO): −1.586
- NES GO_GLUTAMINE_METABOLIC_PROCESS (GO): −1.616
- NES GO_G_PROTEIN_COUPLED_RECEPTOR_ACTIVITY (GO): −1.804
- NES GO_HOMOPHILIC_CELL_ADHESION_VIA_PLASMA_MEMBRANE_ADHESION_MOLECULES (GO): −1.691
- NES GO_MITOTIC_RECOMBINATION (GO): −1.547
- NES GO_NEGATIVE_REGULATION_OF_EPITHELIAL_CELL_DIFFERENTIATION (GO): −1.799
- NES GO_PHOSPHOLIPID_TRANSPORTER_ACTIVITY (GO): −1.692
- NES GO_POTASSIUM_CHANNEL_COMPLEX (GO): −1.693
- NES GO_RECIPROCAL_DNA_RECOMBINATION (GO): −1.485
- NES GO_RECOMBINATIONAL_REPAIR (GO): −1.548
- NES GO_REGULATION_OF_ACUTE_INFLAMMATORY_RESPONSE (GO): −1.555
- NES GO_REGULATION_OF_MEMBRANE_LIPID_DISTRIBUTION (GO): −1.498
- NES GO_RESPONSE_TO_X_RAY (GO): −1.636
- NES GO_SOMATIC_RECOMBINATION_OF_IMMUNOGLOBULIN_GENE_SEGMENTS (GO): −1.483
- NES GO_SOMITE_DEVELOPMENT (GO): −1.594
- NES GO_STRAND_DISPLACEMENT (GO): −1.493
- ES HALLMARK_KRAS_SIGNALING_DN (HALLMARK): −0.282
- ES HALLMARK_KRAS_SIGNALING_UP (HALLMARK): −0.230
- ES HALLMARK_MYC_TARGETS_V1 (HALLMARK): −0.172
- ES HALLMARK_MYC_TARGETS_V2 (HALLMARK): −0.178
- ES HALLMARK_TGF_BETA_SIGNALING (HALLMARK): −0.324
- NES HALLMARK_KRAS_SIGNALING_DN (HALLMARK): −0.992
- NES HALLMARK_KRAS_SIGNALING_UP (HALLMARK): −0.965
- NES HALLMARK_MYC_TARGETS_V1 (HALLMARK): −0.831
- NES HALLMARK_MYC_TARGETS_V2 (HALLMARK): −0.691
- NES HALLMARK_TGF_BETA_SIGNALING (HALLMARK): −1.256
- ES KEGG_ABC_TRANSPORTERS (KEGG): −0.412
- ES KEGG_ADHERENS_JUNCTION (KEGG): −0.158
- ES KEGG_ALANINE_ASPARTATE_AND_GLUTAMATE_METABOLISM (KEGG): −0.250
- ES KEGG_AMYOTROPHIC_LATERAL_SCLEROSIS_ALS (KEGG): −0.247
- ES KEGG_AXON_GUIDANCE (KEGG): −0.201
- ES KEGG_CALCIUM_SIGNALING_PATHWAY (KEGG): −0.324
- ES KEGG_CELL_ADHESION_MOLECULES_CAMS (KEGG): −0.231
- ES KEGG_CYTOSOLIC_DNA_SENSING_PATHWAY (KEGG): −0.247
- ES KEGG_DNA_REPLICATION (KEGG): −0.254
- ES KEGG_ECM_RECEPTOR_INTERACTION (KEGG): −0.201
- ES KEGG_HEDGEHOG_SIGNALING_PATHWAY (KEGG): −0.329
- ES KEGG_HOMOLOGOUS_RECOMBINATION (KEGG): −0.260
- ES KEGG_MISMATCH_REPAIR (KEGG): −0.375
- ES KEGG_NEUROACTIVE_LIGAND_RECEPTOR_INTERACTION (KEGG): −0.624
- ES KEGG_NUCLEOTIDE_EXCISION_REPAIR (KEGG): −0.241
- ES KEGG_PATHOGENIC_ESCHERICHIA_COLI_INFECTION (KEGG): −0.220
- ES KEGG_PURINE_METABOLISM (KEGG): −0.285
- ES KEGG_PYRIMIDINE_METABOLISM (KEGG): −0.256
- ES KEGG_RIG_I_LIKE_RECEPTOR_SIGNALING_PATHWAY (KEGG): −0.197
- ES KEGG_RNA_POLYMERASE (KEGG): −0.202
- ES KEGG_STARCH_AND_SUCROSE_METABOLISM (KEGG): −0.342
- ES KEGG_TGF_BETA_SIGNALING_PATHWAY (KEGG): −0.336
- ES KEGG_WNT_SIGNALING_PATHWAY (KEGG): −0.231
- NES KEGG_ABC_TRANSPORTERS (KEGG): −1.220
- NES KEGG_ADHERENS_JUNCTION (KEGG): −0.628
- NES KEGG_ALANINE_ASPARTATE_AND_GLUTAMATE_METABOLISM (KEGG): −0.732
- NES KEGG_AMYOTROPHIC_LATERAL_SCLEROSIS_ALS (KEGG): −0.838
- NES KEGG_AXON_GUIDANCE (KEGG): −0.829
- NES KEGG_CALCIUM_SIGNALING_PATHWAY (KEGG): −1.264
- NES KEGG_CELL_ADHESION_MOLECULES_CAMS (KEGG): −0.738
- NES KEGG_CYTOSOLIC_DNA_SENSING_PATHWAY (KEGG): −0.784
- NES KEGG_DNA_REPLICATION (KEGG): −0.912
- NES KEGG_ECM_RECEPTOR_INTERACTION (KEGG): −0.655
- NES KEGG_HEDGEHOG_SIGNALING_PATHWAY (KEGG): −0.982
- NES KEGG_HOMOLOGOUS_RECOMBINATION (KEGG): −0.820
- NES KEGG_MISMATCH_REPAIR (KEGG): −1.179
- NES KEGG_NEUROACTIVE_LIGAND_RECEPTOR_INTERACTION (KEGG): −1.955
- NES KEGG_NUCLEOTIDE_EXCISION_REPAIR (KEGG): −0.899
- NES KEGG_PATHOGENIC_ESCHERICHIA_COLI_INFECTION (KEGG): −0.782
- NES KEGG_PURINE_METABOLISM (KEGG): −1.277
- NES KEGG_PYRIMIDINE_METABOLISM (KEGG): −1.109
- NES KEGG_RIG_I_LIKE_RECEPTOR_SIGNALING_PATHWAY (KEGG): −0.724
- NES KEGG_RNA_POLYMERASE (KEGG): −0.669
- NES KEGG_STARCH_AND_SUCROSE_METABOLISM (KEGG): −1.006
- NES KEGG_TGF_BETA_SIGNALING_PATHWAY (KEGG): −1.284
- NES KEGG_WNT_SIGNALING_PATHWAY (KEGG): −0.992
- ES BRN2_01 (TFBT): −0.247
- ES CDPCR1_01 (TFBT): −0.259
- ES CDP_01 (TFBT): −0.301
- ES EN1_01 (TFBT): −0.276
- ES FOXJ2_02 (TFBT): −0.261
- ES GGCKCATGS_UNKNOWN (TFBT): −0.441
- ES HMEF2_Q6 (TFBT): −0.266
- ES HNF1_Q6 (TFBT): −0.266
- ES HOX13_01 (TFBT): −0.366
- ES IK1_01 (TFBT): −0.227
- ES IRF2_01 (TFBT): −0.324
- ES MEF2_02 (TFBT): −0.225
- ES MEF2_Q6_01 (TFBT): −0.220
- ES MEIS1BHOXA9_01 (TFBT): −0.320
- ES NKX3A_01 (TFBT): −0.267
- ES PAX8_01 (TFBT): −0.439
